Reference: ChEMBL document CHEMBL1799925, “Inhibition of sphingosine 1-phosphate lyase for the treatment of rheumatoid arthritis: discovery of (E)-1-(4-((1R,2S,3R)-1,2,3,4-tetrahydroxybutyl)-1H-imidazol-2-yl)ethanone oxime (LX2931) and (1R,2S,3R)-1-(2-(isoxazol-3-yl)-1H-imidazol-4-yl)butane-1,2,3,4-tetraol (LX2932)” (J Med Chem, 2010)
Values belong to the compound of their own block, whether it stands above or below them. Calls of active or inactive are those of the source. No cut-off for these calls is given here.

Legend:
[1] = tested on: Rattus norvegicus; test: Immunomodulatory activity in Sprague-Dawley rat thymus assessed as reduction in peripheral blood lymphocyte level at 30 mg/kg, po administered daily for 3 days measured after 18 hrs by CBC analysis; assay type: functional, organism-based; parameters: dose 30 mg/kg
[2] = tested on: Rattus norvegicus; test: Immunomodulatory activity in Sprague-Dawley rat spleen assessed as reduction in peripheral blood lymphocyte level at 30 mg/kg, po administered daily for 3 days measured after 18 hrs by CBC analysis; assay type: functional, organism-based; parameters: dose 30 mg/kg
[3] = tested on: Rattus norvegicus; test: Immunomodulatory activity in Sprague-Dawley rat jejunum assessed as reduction in peripheral blood lymphocyte level at 30 mg/kg, po administered daily for 3 days measured after 18 hrs by CBC analysis; assay type: functional, organism-based; parameters: dose 30 mg/kg
[4] = tested on: Rattus norvegicus; test: Immunomodulatory activity in Sprague-Dawley rat lymph node assessed as reduction in peripheral blood lymphocyte level at 30 mg/kg, po administered daily for 3 days measured after 18 hrs by CBC analysis; assay type: functional, organism-based; parameters: dose 30 mg/kg
[5] = tested on: Rattus norvegicus; test: Immunomodulatory activity in Sprague-Dawley rat heart assessed as reduction in peripheral blood lymphocyte level at 30 mg/kg, po administered daily for 3 days measured after 18 hrs by CBC analysis; assay type: functional, organism-based; parameters: dose 30 mg/kg
[6] = tested on: Rattus norvegicus; test: Immunomodulatory activity in Sprague-Dawley rat eye assessed as reduction in peripheral blood lymphocyte level at 30 mg/kg, po administered daily for 3 days measured after 18 hrs by CBC analysis; assay type: functional, organism-based; parameters: dose 30 mg/kg
[7] = tested on: Rattus norvegicus; test: Immunomodulatory activity in Sprague-Dawley rat liver assessed as reduction in peripheral blood lymphocyte level at 30 mg/kg, po administered daily for 3 days measured after 18 hrs by CBC analysis; assay type: functional, organism-based; parameters: dose 30 mg/kg
[8] = tested on: Rattus norvegicus; test: Immunomodulatory activity in Sprague-Dawley rat kidney assessed as reduction in peripheral blood lymphocyte level at 30 mg/kg, po administered daily for 3 days measured after 18 hrs by CBC analysis; assay type: functional, organism-based; parameters: dose 30 mg/kg
[9] = tested on: Rattus norvegicus; test: Immunomodulatory activity in Sprague-Dawley rat lung assessed as reduction in peripheral blood lymphocyte level at 30 mg/kg, po administered daily for 3 days measured after 18 hrs by CBC analysis; assay type: functional, organism-based; parameters: dose 30 mg/kg
[10] = tested on: Rattus norvegicus; test: Increase in S1P level Sprague-Dawley rat heart at 30 mg/kg, po administered daily for 3 days measured after 18 hrs […]; assay type: functional, organism-based; parameters: dose 30 mg/kg
[11] = tested on: Rattus norvegicus; test: Increase in S1P level in Sprague-Dawley rat eye at 30 mg/kg, po administered daily for 3 days measured after 18 hrs […]; assay type: functional, organism-based; parameters: dose 30 mg/kg
[12] = tested on: Mus musculus; test: Immunomodulatory activity in mouse assessed as induction of lymphopenia at 5 to 10 mg/kg, po administered as single dose measured after 18 hrs; assay type: functional, organism-based
[13] = tested on: Mus musculus; test: Antiarthritic activity in […] collagen-induced arthritic mouse assessed as delay in onset of collagen-induced arthritis at 100 mg/kg, po administered qd one started one day before collagen challenge; assay type: functional, organism-based; parameters: dose 100 mg/kg
[14] = tested on: Mus musculus; test: Antiarthritic activity in […] collagen-induced arthritic mouse assessed as decrease in arthritic score at 100 mg/kg, po administered qd one started one day before collagen challenge; assay type: functional, organism-based; parameters: dose 100 mg/kg
[15] = tested on: Mus musculus; test: Antiarthritic activity in […] collagen-induced arthritic mouse assessed as decrease in joint swelling at 100 mg/kg, po administered qd one started one day before collagen challenge; assay type: functional, organism-based; parameters: dose 100 mg/kg
[16] = tested on: Mus musculus; test: Antiarthritic activity in […] collagen-induced arthritic mouse assessed as increase in CD4-positive cells in thymus at 100 mg/kg, po qd administered one day before collagen challenge; assay type: functional, organism-based; parameters: dose 100 mg/kg
[17] = tested on: Mus musculus; test: Antiarthritic activity in […] collagen-induced arthritic mouse assessed as increase in CD8-positive cells in thymus at 100 mg/kg, po qd administered one day before collagen challenge; assay type: functional, organism-based; parameters: dose 100 mg/kg
[18] = tested on: Mus musculus; test: Antiarthritic activity in […] collagen-induced arthritic mouse assessed as decrease in synovial hyperplasia at 100 mg/kg, po administered qd one started one day before collagen challenge; assay type: functional, organism-based; parameters: dose 100 mg/kg
[19] = tested on: Mus musculus; test: Antiarthritic activity in […] collagen-induced arthritic mouse assessed as decrease in inflammation at 100 mg/kg, po administered qd one started one day before collagen challenge; assay type: functional, organism-based; parameters: dose 100 mg/kg
[20] = tested on: Mus musculus; test: Antiarthritic activity in […] collagen-induced arthritic mouse assessed as decrease in erosion at 100 mg/kg, po administered qd one started one day before collagen challenge; assay type: functional, organism-based; parameters: dose 100 mg/kg
[21] = tested on: Mus musculus; test: Antiarthritic activity in […] collagen-induced arthritic mouse assessed as decrease in exudate formation at 100 mg/kg, po administered qd one started one day before collagen challenge; assay type: functional, organism-based; parameters: dose 100 mg/kg
[22] = tested on: Mus musculus; test: Antiarthritic activity in […] collagen-induced arthritis in mouse assessed as decrease in joint swelling at 30 mg/kg, po administered qd on day 20 after collagen challenge by ELISA; assay type: functional, organism-based; parameters: dose 30 mg/kg
[23] = tested on: Mus musculus; test: Antiarthritic activity in […] collagen-induced arthritis in mouse assessed as decrease in clinical scores at 30 mg/kg, po administered qd on day 20 after collagen challenge by ELISA; assay type: functional, organism-based; parameters: dose 30 mg/kg
[24] = tested on: Mus musculus; test: Effect on serum anti-CII antibody levels in type 2 collagen-induced arthritis in mouse at 30 mg/kg, po administered qd on day 20 after collagen challenge by ELISA; assay type: functional, organism-based; parameters: dose 30 mg/kg
[25] = tested on: Mus musculus; test: Antiarthritic activity in […] collagen-induced arthritis in mouse assessed as decrease in joint swelling at 5 mg/kg, po administered qd on day 20 after collagen challenge by ELISA; assay type: functional, organism-based; parameters: dose 5 mg/kg
[26] = tested on: Mus musculus; test: Antiarthritic activity in […] collagen-induced arthritis in mouse assessed as decrease in clinical scores at 5 mg/kg, po administered qd on day 20 after collagen challenge by ELISA; assay type: functional, organism-based; parameters: dose 5 mg/kg
[27] = tested on: Mus musculus; test: Immunomodulatory activity in 129/SvEvBrd X C57BL/6 F1 mouse assessed as decrease in peripheral blood lymphocyte count at 30 mg/kg, po measured after 18 hrs by complete blood count analysis relative to control; assay type: ADME, organism-based; parameters: dose 30 mg/kg, route oral; scale not given: the % may be the effect or the level left; conditions: in vivo
[28] = (§1) AUC (0 to infinity) in 129/SvEvBrd X C57BL/6 F1 mouse at 10 mg/kg, po by LC/MS/MS analysis; assay type: ADME, organism-based, Plasma; parameters: time infinity, dose 10 mg/kg, route oral; conditions: 129/SvEvBrd X C57BL/6 F1, mouse, plasma
[29] = Half life in 129/SvEvBrd X C57BL/6 F1 mouse at 10 mg/kg, po by LC/MS/MS analysis; assay type: ADME, organism-based; parameters: dose 10 mg/kg, route oral; conditions: in vivo
[30] = Cmax in 129/SvEvBrd X C57BL/6 F1 mouse at 10 mg/kg, po by LC/MS/MS analysis; assay type: ADME, organism-based; parameters: dose 10 mg/kg, route oral; conditions: in vivo
[31] = Tmax in 129/SvEvBrd X C57BL/6 F1 mouse at 10 mg/kg, po by LC/MS/MS analysis; assay type: ADME, organism-based; parameters: dose 10 mg/kg, route oral; conditions: in vivo
[32] = Volume of distribution at steady state in 129/SvEvBrd X C57BL/6 F1 mouse at 1 mg/kg, iv by LC/MS/MS analysis; assay type: ADME, organism-based; parameters: dose 1 mg/kg, route intravenous; conditions: in vivo, read-out: Vdss
[33] = tested on: Mus musculus; test: Bioavailability in 129/SvEvBrd X C57BL/6 F1 mouse determined from 1 mg/kg, iv and 10 mg/kg, po by LC/MS/MS analysis; assay type: ADME, organism-based; conditions: mouse, in vivo
[34] = tested on: Mus musculus; test: as §1; assay type: ADME, organism-based, Plasma; parameters: time infinity, dose 10 mg/kg, route oral; conditions: mouse, in vivo

SMILES: C/C(=N\O)c1ncc([C@@H](O)[C@H](O)[C@H](O)CO)[nH]1
Activity [1]: Active
Activity [2]: Active
Activity [3]: Active
Activity [4]: Active
Activity [5]: Active
Activity [6]: Active
Activity [7]: Active
Activity [8]: Active
Activity [9]: Active
Activity [10]: inactive
Activity [11]: inactive
Activity [12]: inactive
Activity [13]: Active
Activity [14]: Active
Activity [15]: Active
Activity [16]: Active
Activity [17]: Active
Activity [18]: Active
Activity [19]: Active
Activity [20]: Active
Activity [21]: Active
Activity [22]: Active
Activity [23]: Active
Activity [24]: inactive
Activity [25]: Active
Activity [26]: Active

SMILES: CN(C)Cc1cc(-c2nc([C@@H](O)[C@H](O)[C@H](O)CO)c[nH]2)no1.Cl
Activity [27]: -10%
AUC(0-inf) [28]: 5.9 µM·h

SMILES: Cc1cc(-c2nc([C@@H](O)[C@H](O)[C@H](O)CO)c[nH]2)on1.Cl
Activity [27]: -4%
AUC(0-inf) [28]: 5.3 µM·h

SMILES: Cc1onc(-c2nc([C@@H](O)[C@H](O)[C@H](O)CO)c[nH]2)c1[N+](=O)[O-].Cl
Activity [27]: -27%
AUC(0-inf) [28]: 8.2 µM·h

SMILES: CC(=O)c1c(-c2nc([C@@H](O)[C@H](O)[C@H](O)CO)c[nH]2)noc1C.Cl
Activity [27]: -6%
AUC(0-inf) [28]: 11.7 µM·h

SMILES: Cl.OC[C@@H](O)[C@@H](O)[C@H](O)c1c[nH]c(-c2ccon2)n1
half-life [29]: 2.9 h
Cmax [30]: 6.2 µM
Tmax [31]: 2.1 h
Vd [32]: 0.54 L/kg
F [33]: 2.4%
Activity [22]: Active
Activity [23]: Active
Activity [24]: inactive
Activity [25]: Active
Activity [26]: Active
Activity [27]: -70%
AUC [34]: 21 µM·h

SMILES: CCOc1cc(-c2nc([C@@H](O)[C@H](O)[C@H](O)CO)c[nH]2)no1.Cl
Activity [27]: -26%
AUC(0-inf) [28]: 9.1 µM·h

SMILES: Cl.OC[C@@H](O)[C@@H](O)[C@H](O)c1c[nH]c(C2=NOCC2)n1
Activity [27]: -12%
AUC(0-inf) [28]: 8.3 µM·h

SMILES: CCc1conc1-c1nc([C@@H](O)[C@H](O)[C@H](O)CO)c[nH]1.Cl
Activity [27]: -55%
AUC(0-inf) [28]: 26.9 µM·h

SMILES: Cl.OC[C@@H](O)[C@@H](O)[C@H](O)c1c[nH]c(-c2cc(C3CC3)on2)n1
Activity [27]: -19%
AUC(0-inf) [28]: 9.6 µM·h

Other lines, results leading:

Activity [27]: -30%
AUC(0-inf) [28]: 12.8 µM·h
SMILES: CC(C)c1cc(-c2nc([C@@H](O)[C@H](O)[C@H](O)CO)c[nH]2)no1.Cl

Activity [27]: -7%
AUC(0-inf) [28]: 6.1 µM·h
SMILES: Cl.OCc1cc(-c2nc([C@@H](O)[C@H](O)[C@H](O)CO)c[nH]2)no1

Activity [27]: 2%
AUC(0-inf) [28]: 7.8 µM·h
SMILES: Cl.OC[C@@H](O)[C@@H](O)[C@H](O)c1c[nH]c(-c2cc(C(F)(F)F)on2)n1

Activity [27]: -25%
AUC(0-inf) [28]: 15 µM·h
SMILES: CC(=O)c1nc([C@@H](O)[C@H](O)[C@H](O)CO)c[nH]1.Cl

Activity [27]: -2%
AUC(0-inf) [28]: 10.3 µM·h
SMILES: Cl.OC[C@@H](O)[C@@H](O)[C@H](O)c1c[nH]c(-c2cc(-c3ccccc3)on2)n1

Activity [27]: -39%
AUC(0-inf) [28]: 12.5 µM·h
SMILES: Cc1cc(-c2nc([C@@H](O)[C@H](O)[C@H](O)CO)c[nH]2)no1.Cl
